Key:
Assay type in all cases: biochemical, Variovorax paradoxus
D-amidase [1] = test: Enzyme test for amino acid amides and α-hydroxycarboxylic acid amides (HPLC or NH4+ determination); conditions: for Rel. activity with respect to D and L: activity for the lower enantiomer set at 1; for Activity with respect to Tle-NH2 / Specific activity: substrate 40 mM; for Activity with respect to Tle-NH2: DL-Tle-NH2 = 1; for Specific activity: partly purified D-amidase after the 2nd chromatography step (0.56 U/mg), Pro-, Lac-, MHA-NH2 by NH4+ determination
Experimental: For prolinamide, and the α-hydroxycarboxylic acid amides lactic acid amide (Lac-NH2) and 2-hydroxy-4-methylmercaptobutyric acid amid (MHA-NH2), the methionine-analogous α-hydroxycarboxylic acid amide, determination of the product with the previous HPLC analysis is not possible. For these substrates, the activity was determined with the aid of NH4^+ determination. […] All the substrates were employed in the enzyme test at 40 mM. In the 4th column, for further comparison the activity for the lower enantiomer has been set at 1 and a relative activity for the preferred enantiomer has been calculated therefrom.
(§1) In the conversion of tert-leucinamide (gen. acid amides) by the D-amidase, the formation of ammonia or ammonium ions and tert-leucine (gen. acid) in equimolar amounts occurs. […] The change in concentration of the components participating can be measured in an enzyme test, which comprises incubation of the following test batch for 10-60 minutes at 30° C.
(§2) The enzyme test was started by addition of the substrate and the reaction was stopped by heating at 95° C. for three minutes. The analysis of the reaction products was carried out for ammonium ions by enzymatic determination of ammonium by glutamate dehydrogenase (Bergmeyer, H.,U., and Beutler, H.-O. (1985) Ammonia. In: Methods of Enzymatic Analysis. VCH-Verlag, 3rd edition, vol. 8: 454-461, Weinheim) and for D- and L-tert-leucine by means of HPLC (Bruckner, H., Wittner R., and Godel H., (1991) Fully automated high-performance liquid chromatographic separation of DL-amino acids derivatized with o-phthaldialdehyde together with N-isopropyl-cysteine. Application to food samples. Anal. Biochem. 144(1): 204-206). Batches to which no substrate were added served as controls.
(§3) The separation and quantitative determination of the enantiomers D- and L-tert-leucine were carried out by a “chiral derivatization” on the basis of o-phthaldialdehyde (OPA)/N-isobutyryl-L-cysteine or N-isobutyryl-D-cysteine (Brückner, H.; Wittner R. and Godel H. (1991), Fully automated high-performance liquid chromatographic separation of DL-amino acids derivatized with o-Phthaldialdehyde together with N-isopropyl-cysteine. Application to food samples. Anal. Biochem. 144, 204-206). The diastereomeric isoindole derivatives formed were separated on an RP-18 (reversed phase) column and detected by fluorescence. A two-buffer system of aqueous acetate buffer and an acetonitrile/water mixture was used as the mobile phase.

D-amidase [2] = test: Enzyme test for acid amides, activity by determination of ammonium ions with glutamate dehydrogenase; conditions: for Activity with respect to Tle-NH2: DL-Tle-NH2 = 1; for Relative act.: partly purified D-amidase after the 2nd chromatography step (0.51 U/mg)
Experimental: The activity was measured by determination of the ammonium ions with glutamate dehydrogenase (Bergmeyer, H. U., and Beutler, H.-O. (1985), Ammonia. In: Methods of Enzymatic Analysis. VCH-Verlag, 3rd edition, vol. 8: 454-461, Weinheim). […] The substrates were employed in the enzyme test at 40 mM, except for succinic acid diamide and adipic acid diamide, each at 10 mM, and benzylamide at 20 mM. Since the activities were determined only at in each case one substrate concentration, relative activities are stated.
as §1, §2
The enzyme glutamate dehydrogenase (GluDH; E.C.1.4.1.3) converts 2-oxoglutarate into L-glutamate, ammonium ions being consumed and NADH being oxidized to NAD+(Bergmeyer, H.,U. and Beutler, H.-O. (1985), Ammonia. In: Methods of Enzymatic Analysis. VCH-Verlag, 3rd edition, vol. 8: 454-461, Weinheim). The amount of NADH consumed during the reaction is equivalent to the amount of ammonium ions. The change in the concentration of NADH is the measurement parameter and can be determined spectrophotometrically at a wavelength of 340 nm.
The test components were pipetted into cells of plastic (1.5 ml semimicro disposable cells, Brand) and mixed and the extinction at 340 nm was determined after 5 min. 10 μl GluDH were then added, and after the reaction had gone to completion, as a rule after 30 min, the extinction was measured again.

D-amidase [3] = test: Kinetic cleavage of racemic amino acid amides: enantioselectivity as a function of the conversion
Experimental: To evaluate the suitability for kinetic cleavage of racemic DL-Tle-NH2, the enantioselectivity was determined as a function of the conversion.
DL-Valin-, DL-leucin- and DL-phenylalaninamide were alos tested in this respect. For this, the enantioselectivity was determined as function of the conversion with partly purified enzyme from Variovorax paradoxus 19-3 after the 1st chromatography step.
as §3

[4] = conversion 4%, partly purified enzyme after the 1st chromatography step
[5] = conversion 51%, partly purified enzyme after the 1st chromatography step

Molecule: NC(=O)[C@@H](N)Cc1ccccc1 [L-Phe-NH2]
- Rel. activity with respect to D and L (D-amidase [1]): 1
- Activity with respect to Tle-NH2 (D-amidase [1]): 190
- Specific activity (D-amidase [1]): 110 U/mg

Molecule: NC(=O)CCCCC(N)=O [Adipic acid diamide]
- Activity with respect to Tle-NH2 (D-amidase [2]; substrate 10 mM): 14
- Relative act. (D-amidase [2]; substrate 10 mM): 7.0 U/mg

Molecule: N[C@H](Cc1ccccc1)C(=O)O [D-Phe]
- enantioselectivity (D-amidase [3]; range from 40 to 50% conversion, partly purified enzyme after the 1st chromatography step): ~55%

Molecule: NC(=O)CCC(N)=O [Succinic acid diamide]
- Activity with respect to Tle-NH2 (D-amidase [2]; substrate 10 mM): 2.1
- Relative act. (D-amidase [2]; substrate 10 mM): 1.1 U/mg

Molecule: C[C@@H](N)C(N)=O [D-Ala-NH2]
- Rel. activity with respect to D and L (D-amidase [1]): 3.0
- Activity with respect to Tle-NH2 (D-amidase [1]): 44
- Specific activity (D-amidase [1]): 23 U/mg

Molecule: C[C@H](N)C(N)=O [L-Ala-NH2]
- Rel. activity with respect to D and L (D-amidase [1]): 1
- Activity with respect to Tle-NH2 (D-amidase [1]): 15
- Specific activity (D-amidase [1]): 7.7 U/mg

Molecule: CC[C@H](C)[C@H](N)C(N)=O [L-Ile-NH2]
- Activity with respect to Tle-NH2 (D-amidase [1]): 0.35
- Specific activity (D-amidase [1]): 0.17 U/mg

Molecule: CC(C)C[C@H](N)C(N)=O (racemic) [DL-Leu-NH2]
- E value (D-amidase [3]; conversion 4%): 470
- ee D-Val (D-amidase [3]; [4]): 99.6%
- E value (D-amidase [3]; conversion 18%): 130
- ee D-Val (D-amidase [3]; conversion 18%, partly purified enzyme after the 1st chromatography step): 98.1%
- E value (D-amidase [3]; conversion 33%): 120
- ee D-Val (D-amidase [3]; conversion 33%, partly purified enzyme after the 1st chromatography step): 97.3%
- E value (D-amidase [3]; conversion 40%): 114
- ee D-Val (D-amidase [3]; conversion 40%, partly purified enzyme after the 1st chromatography step): 96.7%
- E value (D-amidase [3]; conversion 48%): 53
- ee D-Val (D-amidase [3]; conversion 48%, partly purified enzyme after the 1st chromatography step): 90.8%
- E value (D-amidase [3]; conversion 51%): 41
- ee D-Val (D-amidase [3]; [5]): 86.7%

Molecule: NC(=O)[C@@H](N)Cc1ccc(O)cc1 [L-Tyr-NH2]
- Activity with respect to Tle-NH2 (D-amidase [1]): 100
- Specific activity (D-amidase [1]): 47 U/mg

Molecule: NC(=O)[C@@H]1CCCN1 [D-Pro-NH2, prolinamide]
- Rel. activity with respect to D and L (D-amidase [1]): 1
- Activity with respect to Tle-NH2 (D-amidase [1]): 24
- Specific activity (D-amidase [1]): 12 U/mg

Molecule: CC(C)C(N)=O [Isobutyramide]
- Activity with respect to Tle-NH2 (D-amidase [2]; substrate 40 mM): 33
- Relative act. (D-amidase [2]; substrate 40 mM): 15 U/mg

Molecule: CCCCC(N)=O [Valeric acid amide]
- Activity with respect to Tle-NH2 (D-amidase [2]; substrate 40 mM): 36
- Relative act. (D-amidase [2]; substrate 40 mM): 16 U/mg

Molecule: NC=O [Formamide]
- Activity with respect to Tle-NH2 (D-amidase [2]; substrate 40 mM): 0.13
- Relative act. (D-amidase [2]; substrate 40 mM): 0.061 U/mg

Molecule: NC(=O)CC(N)=O [Malonic acid diamide]
- Activity with respect to Tle-NH2 (D-amidase [2]; substrate 40 mM): 2.9
- Relative act. (D-amidase [2]; substrate 40 mM): 1.5 U/mg

Molecule: Benzylamide
- Activity with respect to Tle-NH2 (D-amidase [2]; substrate 20 mM): 5.2
- Relative act. (D-amidase [2]; substrate 20 mM): 2.6 U/mg

Molecule: CC(N)=O [Acetamide]
- Activity with respect to Tle-NH2 (D-amidase [2]; substrate 40 mM): 4.0
- Relative act. (D-amidase [2]; substrate 40 mM): 2.1 U/mg

Molecule: CC(C)C[C@@H](N)C(N)=O [D-Leu-NH2]
- Rel. activity with respect to D and L (D-amidase [1]): 15
- Activity with respect to Tle-NH2 (D-amidase [1]): 400
- Specific activity (D-amidase [1]): 220 U/mg

Molecule: NC(=O)C(N)Cc1c[nH]c2ccccc12 (racemic) [DL-Trp-NH2]
- Rel. activity with respect to D and L (D-amidase [1]): 2.5
- Activity with respect to Tle-NH2 (D-amidase [1]): 160
- Specific activity (D-amidase [1]): 86 U/mg

Molecule: CC(O)C(N)=O [D-Lac-NH2, lactic acid amide]
- Rel. activity with respect to D and L (D-amidase [1]): 1
- Activity with respect to Tle-NH2 (D-amidase [1]): 59
- Specific activity (D-amidase [1]): 29 U/mg

Molecule: CC(C)[C@H](N)C(N)=O [L-Val-NH2]
- Rel. activity with respect to D and L (D-amidase [1]): 1
- Activity with respect to Tle-NH2 (D-amidase [1]): 1.2
- Specific activity (D-amidase [1]): 0.59 U/mg

Molecule: NC(=O)[C@H](N)Cc1ccccc1 [D-Phe-NH2]
- Rel. activity with respect to D and L (D-amidase [1]): 4.6
- Activity with respect to Tle-NH2 (D-amidase [1]): 890
- Specific activity (D-amidase [1]): 500 U/mg

Molecule: CSCC[C@H](N)C(N)=O [L-Met-NH2]
- Rel. activity with respect to D and L (D-amidase [1]): 1
- Activity with respect to Tle-NH2 (D-amidase [1]): 86
- Specific activity (D-amidase [1]): 48 U/mg

Molecule: CC(O)C(N)=O [L-Lac-NH2, lactic acid amide]
- Rel. activity with respect to D and L (D-amidase [1]): 1.1
- Activity with respect to Tle-NH2 (D-amidase [1]): 66
- Specific activity (D-amidase [1]): 33 U/mg

Molecule: CC(=O)CC(N)=O [Acetoacetamide]
- Activity with respect to Tle-NH2 (D-amidase [2]; substrate 40 mM): 130
- Relative act. (D-amidase [2]; substrate 40 mM): 58 U/mg

Molecule: NC(=O)[C@@H]1CCCN1 [L-Pro-NH2, prolinamide]
- Rel. activity with respect to D and L (D-amidase [1]): 2.3
- Activity with respect to Tle-NH2 (D-amidase [1]): 56
- Specific activity (D-amidase [1]): 28 U/mg

Molecule: CSCCC(O)C(N)=O (racemic) [DL-MHA-NH2, 2-hydroxy-4-methylmercaptobutyric acid amid]
- Activity with respect to Tle-NH2 (D-amidase [1]): 150
- Specific activity (D-amidase [1]): 82 U/mg

Molecule: CC(C)C[C@H](N)C(N)=O [L-Leu-NH2]
- Rel. activity with respect to D and L (D-amidase [1]): 1
- Activity with respect to Tle-NH2 (D-amidase [1]): 26
- Specific activity (D-amidase [1]): 15 U/mg

Molecule: CCCC(N)=O [Butyramide]
- Activity with respect to Tle-NH2 (D-amidase [2]; substrate 40 mM): 37
- Relative act. (D-amidase [2]; substrate 40 mM): 17 U/mg

Molecule: NC(=O)[C@@H](N)Cc1c[nH]c2ccccc12 [L-Trp-NH2]
- Rel. activity with respect to D and L (D-amidase [1]): 1
- Activity with respect to Tle-NH2 (D-amidase [1]): 62
- Specific activity (D-amidase [1]): 34 U/mg

Molecule: CSCCC(N)C(N)=O (racemic) [DL-Met-NH2]
- Rel. activity with respect to D and L (D-amidase [1]): 2.7
- Activity with respect to Tle-NH2 (D-amidase [1]): 230
- Specific activity (D-amidase [1]): 130 U/mg

Molecule: CC(C)[C@@H](N)C(N)=O [D-Val-NH2]
- Rel. activity with respect to D and L (D-amidase [1]): 11
- Activity with respect to Tle-NH2 (D-amidase [1]): 13
- Specific activity (D-amidase [1]): 6.9 U/mg

Molecule: NC(=O)C(N)Cc1ccccc1 (racemic) [DL-Phe-NH2, DL-phenylalaninamide]
- E value (D-amidase [3]; conversion 4%): 5.6
- ee D-Val (D-amidase [3]; [4]): 68.8%
- E value (D-amidase [3]; conversion 14%): 5.2
- ee D-Val (D-amidase [3]; conversion 14%, partly purified enzyme after the 1st chromatography step): 65.1%
- E value (D-amidase [3]; conversion 26%): 5.1
- ee D-Val (D-amidase [3]; conversion 26%, partly purified enzyme after the 1st chromatography step): 61.5%
- E value (D-amidase [3]; conversion 36%): 5.2
- ee D-Val (D-amidase [3]; conversion 36%, partly purified enzyme after the 1st chromatography step): 58.3%
- E value (D-amidase [3]; conversion 51%): 5.1
- ee D-Val (D-amidase [3]; [5]): 50.9%
- E value (average) (D-amidase [3]; racemic amide, calculated from Table 3): 5
